Values of other authors, collected in US11999734B2, “Compounds and compositions for the treatment of cystic fibrosis” (Fondazione Istituto Italiano Di Tecnologia, priority 2018, dated 2024).

Columns and labels:
F508del-CFTR = F508del-CFTR (Homo sapiens, UniProt P13569, DEL508-508); conditions: chronic treatment of cells with VX-770; Cholon et al. 2014, Veit et al. 2014
Chain of F508del-CFTR (P13569 with tags, fused parts or gaps DEL508-508): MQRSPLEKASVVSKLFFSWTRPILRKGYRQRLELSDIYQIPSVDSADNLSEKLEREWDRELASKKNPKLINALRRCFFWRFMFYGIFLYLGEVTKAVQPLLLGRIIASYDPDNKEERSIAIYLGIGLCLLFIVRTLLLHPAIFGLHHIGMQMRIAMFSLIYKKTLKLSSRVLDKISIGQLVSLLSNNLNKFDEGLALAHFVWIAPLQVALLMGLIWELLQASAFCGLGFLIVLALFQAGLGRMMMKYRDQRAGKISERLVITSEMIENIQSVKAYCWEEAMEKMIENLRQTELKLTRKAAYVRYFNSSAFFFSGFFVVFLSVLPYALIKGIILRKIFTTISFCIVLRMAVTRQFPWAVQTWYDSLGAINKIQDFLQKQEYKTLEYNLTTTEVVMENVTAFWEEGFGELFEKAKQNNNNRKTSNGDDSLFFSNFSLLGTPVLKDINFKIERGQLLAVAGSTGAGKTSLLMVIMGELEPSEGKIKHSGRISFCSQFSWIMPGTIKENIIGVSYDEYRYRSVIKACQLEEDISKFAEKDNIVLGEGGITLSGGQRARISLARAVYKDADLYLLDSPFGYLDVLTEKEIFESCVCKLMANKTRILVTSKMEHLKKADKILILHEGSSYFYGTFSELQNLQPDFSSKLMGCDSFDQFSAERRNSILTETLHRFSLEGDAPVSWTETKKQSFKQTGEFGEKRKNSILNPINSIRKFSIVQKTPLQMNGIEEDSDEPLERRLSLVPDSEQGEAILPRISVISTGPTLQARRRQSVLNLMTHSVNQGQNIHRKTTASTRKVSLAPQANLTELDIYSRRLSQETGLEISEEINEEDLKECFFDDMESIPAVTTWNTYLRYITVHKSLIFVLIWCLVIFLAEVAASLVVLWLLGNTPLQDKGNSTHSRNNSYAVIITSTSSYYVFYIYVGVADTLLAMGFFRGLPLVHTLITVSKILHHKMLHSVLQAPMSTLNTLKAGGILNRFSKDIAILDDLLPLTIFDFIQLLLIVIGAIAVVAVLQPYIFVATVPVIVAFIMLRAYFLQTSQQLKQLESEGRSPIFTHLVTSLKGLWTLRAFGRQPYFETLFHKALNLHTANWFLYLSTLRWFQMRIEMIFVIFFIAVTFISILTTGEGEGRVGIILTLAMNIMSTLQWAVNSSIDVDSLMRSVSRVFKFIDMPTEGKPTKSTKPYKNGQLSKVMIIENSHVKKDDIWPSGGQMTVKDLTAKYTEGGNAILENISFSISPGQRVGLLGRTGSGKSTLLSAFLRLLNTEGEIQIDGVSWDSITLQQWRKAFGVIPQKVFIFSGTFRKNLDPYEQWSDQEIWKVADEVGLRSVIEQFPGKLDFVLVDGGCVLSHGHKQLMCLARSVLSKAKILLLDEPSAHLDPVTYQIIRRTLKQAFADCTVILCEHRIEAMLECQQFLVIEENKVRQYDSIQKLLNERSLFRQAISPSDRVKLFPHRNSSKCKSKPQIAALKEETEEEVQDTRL

| SMILES | effect on corrector activity of VX-809 (F508del-CFTR) | efficacy in clinical trials (CF patients; VX-770, Ramsey et al. 2011) | therapeutic benefit in clinical trials (CF patients; CF patients with F508del mutation, Clancy et al. 2012) |
| --- | --- | --- | --- |
| CC(C)(C)c1cc(C(C)(C)C)c(NC(=O)c2c[nH]c3ccccc3c2=O)cc1O [VX-770, ivacaftor] | decreases the corrector activity of VX-809 | high efficacy | – |
| Cc1ccc(NC(=O)C2(c3ccc4c(c3)OC(F)(F)O4)CC2)nc1-c1cccc(C(=O)O)c1 [VX-809, lumacaftor] | – | – | did not show a clear therapeutic benefit |
